Where a name gives a salt, the structure may show the parent alone.
Columns and labels:
[1] = Solubility in water of nicardipine (hydrochloride), complexed and non-complexed (Example 3); format: physicochemical; settings: room temperature, saturated solution
Experimental: Solubility in water Comparative solubility of nicardipine and its hydrochloride resp. alone and of its inclusion complex with beta-cyclodextrin. The concentrations of the dissolved nicardipine and its hydrochloride resp. at room temperature were determined in clear filtrates of the saturated solutions by liquid chromatography using the external standard method.

[2] = Dissolution rate in artificial biological fluids, Paddle Method, USP XXI (Example 5); format: physicochemical; settings: for % dissolution: 37° C., mean of three tests
Experimental: Dissolution rates of the complexed and the non-complexed nicardipine and its hydrochloride
40 mg of nicardipine hydrochloride or the equivalent amount of […] of the inclusion complex of nicardipine with beta-cyclodextrin were used.
The dissolution tests were performed in artificial gastric juice of pH 1.2 and in artificial intestinal juices of pH 6.0, 6.5 and 7.4 at the temperature of 37° C.±0.5° C. The volume of the artificial biological fluids was 1000 ml. The rotation speed of the paddle mixer was 100 rpm. The quantities of the dissolved nicardipine hydrochloride in the test samples were determined spectrophotometrically (λmax =240 nm).

[3] = Acute toxicity (LD50) in mice after p.o. administration (Example 6); format: in vivo; settings: mouse, in vivo, po; for mortality at 24 h: read-out: % of perished animals after 24 hrs; for mortality at 360 h: read-out: % of perished animals after 15 days; for LD50 at 360 h: mice, p.o., Litchfield-Wilcoxon, read-out: LD50 after 15 days
Experimental: (§1) In toxicological tests acute toxicities (LD50) of nicardipine hydrochloride and of its inclusion complex with beta-cyclodextrin were determined in mice and rats. The complex contained 26.8% of nicardipine hydrochloride.
(§2) Albino laboratory mice weighing 18 to 24 g and rats weighing 180 to 240 g of both sexes were used. Nicardipine hydrochloride was administered in the following doses:
(§3) The volume of the administered suspension was in mice 0.2 to 0.4 ml/20 g of body weight and in rats 0.8 to 2.4 ml/200 g of body weight.
(§4) The inclusion complex of nicardipine hydrochloride with beta-cyclodextrin was administered in the following doses:
(§5) mice: 18500 mg/kg of body weight, corresponding to
(§6) 4958 mg of nicardipine/kg of body weight;
(§7) The volume of the administered suspension was in mice 0.6 ml/20 g of body weight and in rats 1.2 to 4.4 ml/200 g of body weight. The animals were left without food for 18 hours before the administration. After the administration the animals were put under observation and the symptoms of poisoning or behaviour changes were recorded for another 15 days. During the tests the animals were given food and water ad libitum.
(§8) The results were statistically evaluated according to the Litchfield-Wilcoxon method (J. Pharmacol. Exp. Therap. 96, 99 (1949)).

mice = assay: as above; format: in vivo; settings: mice, p.o.; for LD50 after 15 days: Litchfield-Wilcoxon, 21600 min
Experimental: as §1, §2, §3, §4, §5, §6, §7, §8

[4] = Acute toxicity (LD50) in rats after p.o. administration (Example 6); format: in vivo; settings: rat, in vivo, po; for mortality at 24 h: read-out: % of perished animals after 24 hrs; for mortality at 360 h: read-out: % of perished animals after 15 days; for LD50 at 360 h: rats, p.o., Litchfield-Wilcoxon, read-out: LD50 after 15 days
Experimental: as §1, §2, §3, §4
(§9) rats: 5000 mg/kg of body weight, corresponding to
(§10) 1340 mg of nicardipine/kg of body weight,
(§11) 11100 mg/kg of body weight, corresponding to
(§12) 2975 mg of nicardipine/kg of body weight,
(§13) 18500 mg/kg of body weight, corresponding to
(§14) 4958 mg of nicardipine/kg of body weight.
as §7, §8

rats = assay: as above; format: in vivo; settings: rats, p.o.; for LD50 after 15 days: Litchfield-Wilcoxon, 21600 min
Experimental: as §1, §2, §3, §4, §9, §10, §11, §12, §13, §14, §7, §8

[5] = Differential scanning calorimetry: thermal stability (Example 4); format: physicochemical; settings: DSC
Experimental: Nicardipine hydrochloride melts at 160° C., its thermal decomposition beginning at about 200° C. Beta-cyclodextrin contains combined water, which begins to separate off the sample already at about 40° C. The dehydratation of beta-cyclodextrin is completed at about 100° C. Anhydrous beta-cyclodextrin is stable up to 270° C., when thermal decomposition starts, which becomes intensive at 300° C. The behaviour of the inclusion complex of nicardipine hydrochloride with beta-cyclodextrin at the thermoanalytical assay is quite different. After the initial slight loss of weight at temperatures below 150° C., which can be attributed to the adsorbed moisture, the substance is stable up to about 220° C, when thermal decomposition sets in. […] The DSC scans of nicardipine hydrochloride, beta-cyclodextrin, the physical mixture of nicardipine hydrochloride and beta-cyclodextrin and of the inclusion complex of nicardipine hydrochloride with beta-cyclodextrin clearly indicate the formation of the inclusion complex of nicardipine hydrochloride with beta-cyclodextrin. Thus, the differential scanning calorimetry measurements are in accordance with the powder X-ray diffraction patterns.

[6] = cited from earlier work
[7] = 1500 mg/kg, mice F, 1500 mg/kg p.o.
[8] = 1500 mg/kg, mice M, 1500 mg/kg p.o.
[9] = 3000 mg/kg, mice F, 3000 mg/kg p.o.
[10] = 3000 mg/kg, mice M, 3000 mg/kg p.o.
[11] = 4000 mg/kg, mice F, 4000 mg/kg p.o.
[12] = 5000 mg/kg, mice F, 5000 mg/kg p.o.
[13] = 5000 mg/kg, mice M, 5000 mg/kg p.o.
[14] = 6000 mg/kg, mice F, 6000 mg/kg p.o.
[15] = 6000 mg/kg, mice M, 6000 mg/kg p.o.
[16] = 2000 mg/kg, rats M, 2000 mg/kg p.o.
[17] = 2500 mg/kg, rats M, 2500 mg/kg p.o.
[18] = 3000 mg/kg, rats F, 3000 mg/kg p.o.
[19] = 3500 mg/kg, rats M, 3500 mg/kg p.o.
[20] = 4000 mg/kg, rats F, 4000 mg/kg p.o.
[21] = 5000 mg/kg, rats F, 5000 mg/kg p.o.
[22] = 5000 mg/kg, rats M, 5000 mg/kg p.o.
[23] = 6000 mg/kg, rats F, 6000 mg/kg p.o.

SMILES: COC(=O)C1=C(C)NC(C)=C(C(=O)OCCN(C)Cc2ccccc2)C1c1cccc([N+](=O)[O-])c1 (centres unmarked) [nicardipine hydrochloride]
- solubility [1]: 1500 µg/mL
- dissolution, in words ([2]; gastric juice): dissolves quickly and completely
- % dissolution ([2]; gastric juice, pH 1.2, 10 min): 93.5%
- % dissolution ([2]; gastric juice, pH 1.2, 30 min): 100.2%
- % dissolution ([2]; intestinal juice, pH 6.0, 10 min): 50.2%
- % dissolution ([2]; intestinal juice, pH 6.0, 30 min): 58.7%
- % dissolution ([2]; intestinal juice, pH 6.5, 10 min): 35.5%
- % dissolution ([2]; intestinal juice, pH 6.5, 30 min): 39.0%
- % dissolution ([2]; intestinal juice, pH 7.4, 10 min): 1.0%
- % dissolution ([2]; intestinal juice, pH 7.4, 30 min): 1.3%
- mortality at 24 h [3, 7]: 20%
- mortality at 360 h [3, 7]: 20%
- mortality at 24 h [3, 8]: 0%
- mortality at 360 h [3, 8]: 0%
- mortality at 24 h [3, 9]: 40%
- mortality at 360 h [3, 9]: 40%
- mortality at 24 h [3, 10]: 30%
- mortality at 360 h [3, 10]: 40%
- mortality at 24 h [3, 11]: 30%
- mortality at 360 h [3, 11]: 50%
- mortality at 24 h [3, 12]: 40%
- mortality at 360 h [3, 12]: 70%
- mortality at 24 h [3, 13]: 40%
- mortality at 360 h [3, 13]: 70%
- mortality at 24 h [3, 14]: 90%
- mortality at 360 h [3, 14]: 90%
- mortality at 24 h [3, 15]: 90%
- mortality at 360 h [3, 15]: 100%
- LD50 at 360 h ([3]; F): 3640 mg/kg
- LD50 at 360 h ([3]; M): 3760 mg/kg
- LD50 after 15 days (mice; F): 3639 (2637-5022) mg/kg
- LD50 after 15 days (mice; M): 3756 (2815-5012) mg/kg
- recovery of animals (mice): recovered after 24 hours
- symptoms of poisoning (mice): dyspnoea and paresis
- mortality at 24 h [4, 16]: 40%
- mortality at 360 h [4, 16]: 40%
- mortality at 24 h [4, 17]: 40%
- mortality at 360 h [4, 17]: 40%
- mortality at 24 h [4, 18]: 0%
- mortality at 360 h [4, 18]: 0%
- mortality at 24 h [4, 19]: 60%
- mortality at 360 h [4, 19]: 60%
- mortality at 24 h [4, 20]: 10%
- mortality at 360 h [4, 20]: 20%
- mortality at 24 h [4, 21]: 44.4%
- mortality at 360 h [4, 21]: 66.6%
- mortality at 24 h [4, 22]: 80%
- mortality at 360 h [4, 22]: 80%
- mortality at 24 h [4, 23]: 80%
- mortality at 360 h [4, 23]: 80%
- LD50 at 360 h ([4]; F): 4790 mg/kg
- LD50 at 360 h ([4]; M): 2900 mg/kg
- LD50 after 15 days (rats; F): 4791 (4206-5458) mg/kg
- LD50 after 15 days (rats; M): 2900 (1635-5143) mg/kg
- recovery of animals (rats): recovered after 24 hours
- symptoms of poisoning (rats): dyspnoea and paresis
- onset of thermal decomposition (stable up to) [5]: about 200 °C
- solubility at higher pH values ([6]; higher pH values): very poor
- solubility at low pH values ([6]; low pH values): good

Reference: patent US5079237A, “Inclusion complex of nicardipine or its hydrochloride with beta-cyclodextrin and a sustained release pharmaceutical preparation containing the same” (priority 1988, dated 1992)
